The values below come from article PMC5573151 (Clinical cancer research : an official journal of the …, 2009).

For the test, the target named is HLA-A2.1 (Homo sapiens, UniProt P04439, D140Y/D185E/D98H/E176V/E277Q/G131W/G231S/I119V/I121R/I166T/I218V/L300P/L318F/N151K/N90K/P208A/P217A/Q86G/Q94H/R138H/R169H/T345S). Briefly: MHC stabilization. It is filed as binding. The conditions noted are these: T2 cell assay.

As to SLYDSCYQI [SIM2(199)], the “Binding to A2.1 (in words)” value is given as “strongly bind”. Then KLLPLPSAI [SIM2(25)], with “strongly bind”.
